# Measurements: patent publication US6218438A, “Copolymer compositions for treating viral infections” (Supratek Pharma, Inc., priority 1999, dated 2001)
# Experiments:
# [1] = target: T1, HIV-1 reverse transcriptase (p51/p66 RT), RNAse H activity (Human immunodeficiency virus type 1 group M subtype B, UniProt P03366); assay: Inhibition of RNAse H activity of RT; format: biochemical
# T1 construct: 10 ng of p51/p66 heterodimeric RT per assay were used
# Protocol: BBNH and Fe(III)-BBNH complex at various concentrations were examined for the ability to inhibit RNA dependent and DNA dependent DNA polymerase activities as well as RNAse H activity of HIV-1 reverse transcriptase (RT RDDP, RT DDDP, and RT RNAse H, respectively). To analyze RT RDDP and RT DDDP the following reaction mixture (100 μl total volume) was used: 50 mM Tris-HCl (pH 7.8), 60 mM KCl, 10 mM MgCl2, 10 ng of p51/p66 RT, 0.1-0.5 units of template/primer, and 0.5-25 μM [^3 H]dNTP. Aliquots of the test compounds dissolved in DMSO were added to the reaction mixtures, incubated for 10-20 min. at 37° C. and than quenched with 500 μl of cold 20 mM sodium pyrophosphate in 10% dichloroacetic acid. After 10 min. on ice, the samples were filtered on Whatman 934-AH glass fiber filters and washed with 10% dichloroacetic acid and ethanol, and the radioactivity was determined by liquid scintillation analysis. To analyze RT RNAse H the following reaction mixture (50 μl total volume) was used: 5OmM Tris-HCl (pH 8.0), 60 mM KCl, 8 mM MgCl2, and variable amounts of ([^3 H]rG)-poly(dC). Generally, 10 ng of p51/p66 heterodimeric RT per assay were used. Aliquots of the test compounds dissolved in DMSO were added to the reaction mixtures, incubated for 20 min. at 37° C. and than quenched by placing the tubes on ice followed by the addition of 100 μl of cold 7% perchloric acid. After 10 min. on ice, the samples were centrifuged at 12,000 g for 15 min. 100 μl of the supernatants were carefully removed, and the radioactivity was determined by liquid scintillation analysis.
# [2] = tested on: HIV-1 infection of MT2 cells; assay: Inhibition of HIV-1 infection of uninfected MT2 cells; format: cell-based; conditions: compound in DMSO, 30 min before HIV
# Protocol: BBNH and Fe(III)-BBNH complex at various concentrations were examined for the ability to inhibit HIV-1 infection of uninfected MT2 cells. Aliquots of a solution of the compounds in dimethyl sulfoxide were added to uninfected MT2 cells (2×10^5 cells/ml) in RPMI medium containing 10% fetal bovine serum to provide defined final concentrations of test compound. The cells and test compounds were incubated for 30 minutes at 37° C., then inoculated with a suspension of HIV virions. The cells, test compounds and HIV were incubated for 18 h at 37° C., then the cells were collected by centrifugation, washed, and resuspended in RPMI medium containing 10% fetal bovine serum and containing the same concentration of test compound as initially employed. The cells were then cultured at 37° C. (with culture medium changes as required). HIV infection was assessed by microscopic examination of HIV-induced cytopathicity (syncytium) and/or by analysis of HIV p24 antigen levels in the culture supernatants.
# MT2 cells = assay: Cytotoxic activity against uninfected MT2 cells (XTT assay); format: cell-based, human; conditions: 4 days at 37° C., in DMSO
# Protocol: BBNH and Fe(III)-BBNH complex at various concentrations were examined for cytotoxic activity against uninfected MT2 cells. Aliquots of a solution of the compounds in dimethyl sulfoxide were added to the MT2 cells (2×10^5 cells/ml) in RPMI medium containing 10% fetal bovine serum to provide defined final concentrations of test compound. The cells and test compounds were cultured for 4 days at 37° C., in the presence of 5% CO2 and then cytotoxic effect of the compounds was analyzed by using the standard XTT assay. The CC50 calculated from the results were 10±0.5 μM for BBNH and more than 1000 μM for Fe(III)-BBNH.
# [3] = Solubility of Fe(III)BBNH in water and organic solvents; format: physicochemical; conditions: room temperature, 180 min
# Protocol: One mg of Fe(III)BBNH was dissolved in 1 ml of dimethyl sulfoxide (DMSO). Aliquots of the solution were further diluted with DMSO to achieve the following final concentrations: […]. Each concentration point of was prepared in triplicates. The aliquots […] of the samples were transferred in 96-well plate. The optical densities (OD) at […] of all the samples were measured by using Microplate Reader.
# The samples of Fe(III)BBNH (1 mg each) were placed in 1 ml of the following solvents:
# The samples were intensively agitated during three hours at room temperature using a rotator. After that the samples were centrifuged at 10,000 g for 10 minutes. The supernatants (500 μl each) were separated and then were dried by using a speed-vac centrifuge. Each sample was then dissolved in 500 μl DMSO and aliquots (50 μl each) were transferred to 96-well plate. The optical densities were determined at λ400 nm for using microplate reader. Concentrations of the test compound in the samples were then determined by using the above shown calibration data. Each concentration of the test compound was measured in triplicates.
# [4] = tested on: HIV-1 replication in cells; assay: Inhibition of HIV-1 replication in infected cells (general statement); format: cell-based
# [5] = Solubility in a water medium (general statement); format: physicochemical
# [6] = Solubility of Fe(III)BBNH in organic solutions with various salts and pH; format: physicochemical
# Protocol: The samples of Fe(III)BBNH (1 mg of each) were placed in 1 ml of following range of solvents:
# The samples were intensively agitated during three hours at room temperature using a rotator. After that the samples were centrifuged at 10,000 g for 10 min. The supernatants (500 μl each) were separated and then dried by using a speed-vac centrifuge. Each sample was dissolved in 500 μl DMSO and the aliquots (50 μl each) were transferred to 96-well plate. The optical densities were determined at λ400 nm using a microplate reader. Fe(III)BBNH concentrations in the samples were then determined by using the calibration shown in Example 4A. Each concentration of Fe(III)BBNH was analyzed in triplicates.
structure (smiles),measurement,setting,value
CC(C)(C)c1ccc(C(=O)NN=Cc2c(O)ccc3ccccc23)cc1.C[O-].[Cl-].[Cl-].[Fe+3] [Fe(III)-BBNH],IC50,[1]; 10 min. preincubation,0.5 ± 0.07 µM
same,"Ratio BBNH/Fe(III)-BBNH (IC50), RT RNase H",[1]; 10 min. preincubation,7
same,IC50,[1]; No preincubation,0.9 ± 0.5 µM
same,"Ratio BBNH/Fe(III)-BBNH (IC50), RT RNase H",[1]; No preincubation,> 50
same,IC50,[2],> 50 µM
same,CC50,MT2 cells,> 1000 µM
same,Solubility of Fe(III)BBNH dissolved in the sample,[3]; Acetonitrile 100%,163.6 µg/mL
same,Solubility of Fe(III)BBNH dissolved in the sample,[3]; Acetonitrile: 10% H2O,491.4 µg/mL
same,Solubility of Fe(III)BBNH dissolved in the sample,[3]; Acetonitrile: 20% H2O,293.9 µg/mL
same,Solubility of Fe(III)BBNH dissolved in the sample,[3]; DMFA 100%,1000.2 µg/mL
same,Solubility of Fe(III)BBNH dissolved in the sample,[3]; DMSO 100%,1001.4 µg/mL
same,Solubility of Fe(III)BBNH dissolved in the sample,[3]; Methanol 100%,505.6 µg/mL
same,Solubility of Fe(III)BBNH dissolved in the sample,[3]; Methanol: 10% H2O,206.7 µg/mL
same,Solubility of Fe(III)BBNH dissolved in the sample,[3]; Water 100%,< 0.001 µg/mL
same,antiviral activity against HIV-1 replication in cells,[4],no antiviral activity against HIV-1 replication in cells
same,"inhibition of HIV-1 replication in cells, water-organic formulations",[4]; water-organic formulations,very low activity
same,solubility in a water medium,[5],practically insoluble in a water medium
same,Concentration of Fe306 dissolved in the sample,[6]; Acetonitrile:10% Ammonium Acetate (0.01 M) pH 3.0,125.7 µg/mL
same,Concentration of Fe306 dissolved in the sample,"[6]; Acetonitrile:10% Ammonium Acetate (0.01 M) pH 5.0, 180 min",223.9 µg/mL
same,Concentration of Fe306 dissolved in the sample,"[6]; Acetonitrile:10% Ammonium Acetate (0.01 M) pH 7.0, 180 min",304.7 µg/mL
same,Concentration of Fe306 dissolved in the sample,[6]; Acetonitrile:10% Ammonium Formate (0.01 M) pH 3.0,172.9 µg/mL
same,Concentration of Fe306 dissolved in the sample,"[6]; Acetonitrile:10% Ammonium Formate (0.01 M) pH 5.0, 180 min",233.6 µg/mL
same,Concentration of Fe306 dissolved in the sample,"[6]; Acetonitrile:10% Ammonium Formate (0.01 M) pH 6.2, 180 min",200.1 µg/mL
same,Concentration of Fe306 dissolved in the sample,[6]; Methanol:10% 0.01 M phosphate buffer pH 3.0,14.4 µg/mL
same,Concentration of Fe306 dissolved in the sample,"[6]; Methanol:10% 0.01 M phosphate buffer pH 5.0, 180 min",14.9 µg/mL
same,Concentration of Fe306 dissolved in the sample,[6]; Methanol:10% Ammonium Acetate (0.01 M) pH 3.0,26.2 µg/mL
same,Concentration of Fe306 dissolved in the sample,"[6]; Methanol:10% Ammonium Acetate (0.01 M) pH 5.0, 180 min",76.6 µg/mL
same,Concentration of Fe306 dissolved in the sample,"[6]; Methanol:10% Ammonium Acetate (0.01 M) pH 7.0, 180 min",94.4 µg/mL
same,Concentration of Fe306 dissolved in the sample,[6]; Methanol:10% Ammonium Formate (0.01 M) pH 3.0,50.9 µg/mL
same,Concentration of Fe306 dissolved in the sample,"[6]; Methanol:10% Ammonium Formate (0.01 M) pH 5.0, 180 min",43.4 µg/mL
same,Concentration of Fe306 dissolved in the sample,"[6]; Methanol:10% Ammonium Formate (0.01 M) pH 6.2, 180 min",31.2 µg/mL
